Numbers after ± are expanded uncertainties. One block for each molecule: values may come before it.
Conditions: Liquid, Closed cell (Static) method

vapor or sublimation pressure (337.66 K): 24.6 ± 0.09 kPa | vapor or sublimation pressure (342.61 K): 29.5 ± 0.11 kPa | vapor or sublimation pressure (347.62 K): 35.68 ± 0.13 kPa | vapor or sublimation pressure (352.67 K): 42.43 ± 0.15 kPa | vapor or sublimation pressure (357.58 K): 50.12 ± 0.18 kPa | vapor or sublimation pressure (362.57 K): 59 ± 0.2 kPa | vapor or sublimation pressure (382.65 K): 101.3 ± 0.3 kPa
Compound: CCC(=O)OC(C)C [1-methylethyl propanoate]

vapor or sublimation pressure (355.15 K): 101.3 ± 1.2 kPa
Compound: CC(C)O [propan-2-ol]

vapor or sublimation pressure (413.58 K): 101.3 ± 1.2 kPa
Compound: CCC(=O)O [propanoic acid]

From the NIST ThermoML archive (doi:10.1016/j.fluid.2011.03.003)
